The values below come from patent US12285393B2, “Roles of modulators of intersectin-Cdc42 signaling in Alzheimer's disease” (priority 2017, dated 2025).

For test [1], the target named is T1, Cdc42 (Homo sapiens, UniProt P60953). Briefly: Rho-GEF IC50 assay (GEF/DH domain-mediated mant-GTP binding). The note with it: read-out: IC50, GEF/DH domain-mediated mant-GTP binding/Cdc42 activation. Also on record: purchased Cytoskeleton Inc. The test is classed as biochemical. As for the experimental part: (§1) Rho-GEF IC50 Assay: Rho-GEF assay (Cytoskeleton Inc., Denver, Colorado, United States of America) was conducted per manufacturer's instructions (λex=360 nm, λem=460 nm). Briefly, a solution (50 μL) of purified Rho GTPase (1 μM) and mant-GTP (1.5 μM) with or without compound (0.001-500 μM) was prepared and the absorbance monitored for 10-30 min to obtain the background/baseline. The addition of purified GEF/DH domain (0.08-0.2 μM) was carried out simultaneously and the absorbance was recorded for 30-45 min. The linear slope following the addition of the GEF was calculated and expressed as percentage of the control and plotted on an IC50 curve.
Target sequence in this assay (P60953 whole entry, the tested form may be a part): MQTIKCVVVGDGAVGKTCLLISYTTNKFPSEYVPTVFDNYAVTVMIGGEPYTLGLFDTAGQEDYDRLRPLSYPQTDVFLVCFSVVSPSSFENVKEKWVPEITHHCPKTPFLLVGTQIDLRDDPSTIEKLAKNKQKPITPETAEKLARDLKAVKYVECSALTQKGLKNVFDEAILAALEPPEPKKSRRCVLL

The target in the next test is T2, RhoA (Homo sapiens, UniProt P61586).
T2 construct: purchased Cytoskeleton Inc
The description is as above. Format: biochemical. As for the experimental part: as §1

Test [2] addresses T3, Rac1 (Homo sapiens, UniProt P63000).
T3 construct: purchased Cytoskeleton Inc
Described as above. Format: biochemical. The procedure: as §1

The target of a further test is T4, GTP-bound (active) Cdc42 (Mus musculus, UniProt P60766).
T4 construct: endogenous in cells; host or cells: Swiss 3T3 cells
Briefly: G-LISA in serum-starved Swiss 3T3 cells. The note with it: 50 μM. Format: cell-based. As for the experimental part:
G-LISA: G-LISA is an ELISA-based assay that allows a quantitative determination of the levels of GTP-bound (active) Cdc42 in cellular lysates. Swiss 3T3 cells (˜50% confluent) were starved for 24h then treated with ZCL278 (50 μM) for 0, 5, 10, 15, 30, or 60 m. Cells were lysed and G-LISA conducted according to Cytoskeleton G-LISA protocol. Briefly, ˜300 μL of lysis buffer was added, cells were scraped, transferred to a centrifuge tube, and centrifuged at 0° C. for 1 min at 13,200 rpm. Samples were flash frozen in liquid nitrogen. Approximately […] protein was loaded into duplicate wells for G-LISA. Absorbance was measured at 490 nm.

In test [3] the target is T1, Cdc42. The note with it: in the presence of activating upstream signaling compounds; cited from earlier work.
Target sequence in this assay (P60953 whole entry, species assumed, the tested form may be a part): as the sequence (P60953 whole entry, the tested form may be a part) above
Test [4] concerns the target T1, Cdc42. Briefly: Cdc42-GEF-assay, additional compound screening. Format: biochemical. The note with it: percentages of ZCL278 activity normalized to batch; more than 100% = more potent activator; Table 9. Also on record: purchased Cytoskeleton Inc. The procedure:
as §1
Target sequence in this assay (P60953 whole entry, the tested form may be a part): as above
Cdc42 (1 μM) was incubated with mant-GTP (1.5 μM) and varying concentrations of ZCL278, ZCL279, or ZCL367 (5-500 μM). Fluorescent readings were taken every minute for 10 m to acquire the baseline. The GEF/DH domain (0.08-0.2 μM) was added followed by readings taken every minute for another 30 m. The linear phase was calculated from within the time period of 12-22 m. Cdc42 (1 μM) was incubated with mant-GTP (1.5 μM) and varying concentrations of ZCL278, ZCL279, or ZCL367 (5-500 μM). Fluorescent readings were taken every minute for 30 m to monitor the binding of mant-GTP in the absence of GEF/DH domain.
Cdc42-GEF-assays were conducted on additional screening compounds in batches of 9 compounds per batch as described above in Example 2 using ZCL278 and ZCL367 as standards. Screening compounds were taken from the Specs Chemistry Database of 197,000 compounds for small molecule or the National Cancer Institute Compound Library. […] These compounds promote Cdc42-mantGTP binding without GEF. It is possible that these compounds can inhibit Cdc42-mantGTP binding with GEF. […] These compounds appear to have activity like ZCL279. […] However, upon the addition of GEF, the compounds appear to facilitate the binding of mantGTP to Cdc42 (high assay slope, relative to ZCL278)

Test [5] addresses T5, Rac1 (Mus musculus, UniProt P63001).
T5 construct: endogenous in cells; host or cells: Swiss 3T3 cells
Briefly: G-LISA in serum-starved Swiss 3T3 cells. Format: cell-based. The note with it: 50 μM.

Test [6] relates to 3×Tg-AD mice. Put plainly: Burrowing test. The note with it: 3×Tg AD mouse model; 20 μg/g I.P. once a week, 4 weeks. The test is classed as in vivo. The source says:
Six-month-old C57/BL6 (WT) and 3×Tg-AD mice with an average weight of 24 g from Jackson Laboratory (Bar Harbor, Maine, United States of America) were used. The 3×Tg-AD mice in hybrid 129/C57BL/6 background contain two mutant human transgenes, hAPP harboring Swedish mutation (hAPPswe) and mutant htau (htau301L) under a neuron-specific promoter, and also contain the knock-in mutant presenilin 1 (PS1M146V). See Oddo et al. (2003) Neuron 39:409-421). 3×Tg-AD mice were received from Jackson Laboratory as Psen1 B6:129-Psen1<tmMpm>Tg(APPSwetauP301L)1Lfa/J and the wild type control as SF2: (B6129SF1/J+p+Tyr-c+Mgf-SIJ)F2. All mice were subjected to two weeks of training for familiarizing behavioral test procedures. Subsequently, mice were assayed to establish a baseline of behavior tests before ZCL compound treatment. Then, mice were separated into three treatment groups (Control, ZCL278 and ZCL279). Both ZCL278 and ZCL279 were dissolved in sesame oil with 5% DMSO and each treatment was administrated via an intraperitoneal injection. All treatment groups of mice were treated once a week. Control group was treated with 130 μl 5% DMSO in sesame oil. […]
Burrowing test: At least 2.5 hours before the start of the dark cycle (4:30 pm), mice from each selected treatment group were housed in individual cages. […] After 2 hours, the food left in the tube was measured.

For test [7], the system named is 3×Tg-AD mice. Briefly: Nesting test. Conditions: 3×Tg AD mouse model; 20 μg/g I.P. once a week, 4 weeks. Format: in vivo. The text has this: Six-month-old C57/BL6 (WT) and 3×Tg-AD mice with an average weight of 24 g from Jackson Laboratory (Bar Harbor, Maine, United States of America) were used. The 3×Tg-AD mice in hybrid 129/C57BL/6 background contain two mutant human transgenes, hAPP harboring Swedish mutation (hAPPswe) and mutant htau (htau301L) under a neuron-specific promoter, and also contain the knock-in mutant presenilin 1 (PS1M146V). See Oddo et al. (2003) Neuron 39:409-421). 3×Tg-AD mice were received from Jackson Laboratory as Psen1 B6:129-Psen1<tmMpm>Tg(APPSwetauP301L)1Lfa/J and the wild type control as SF2: (B6129SF1/J+p+Tyr-c+Mgf-SIJ)F2. All mice were subjected to two weeks of training for familiarizing behavioral test procedures. […]
Nesting test: Similar to the burrowing test, 2.5 hours before the start of the dark cycle, mice were housed singly in cages containing one 5 cm square of pressed cotton (‘Nestlet’, which the mice normally received as part of their environmental enrichment) with which to make a nest. The condition of each nest was assessed after 2 hours, according to a four-point scale as follows: • 1=Nestlet not noticeably touched (>90% intact). • 2=Nestlet partially tom up (70-90% remaining intact). • 3=Mostly shredded but often no identifiable nest site (<50% remaining intact). • 4=An identifiable nest (<10% remaining intact).

pIC50: −log10 of the molar value.

T4 sequence (P60766 whole entry): as the sequence (P60953 whole entry, the tested form may be a part) above
T2 sequence (P61586 whole entry): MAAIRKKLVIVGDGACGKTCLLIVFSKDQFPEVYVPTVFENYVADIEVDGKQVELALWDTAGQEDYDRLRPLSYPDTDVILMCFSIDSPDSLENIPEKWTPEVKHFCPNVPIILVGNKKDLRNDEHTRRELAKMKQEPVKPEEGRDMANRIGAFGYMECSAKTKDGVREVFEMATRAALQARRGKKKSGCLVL

With `Cc1cc(C)nc(NS(=O)(=O)c2ccc(NC(=S)NC(=O)COc3ccc(Br)cc3Cl)cc2)n1` [ZCL278, 4-(3-(2-(4-bromo-2-chloro-phenoxy)-acetyl)-thioureido)-N-(4,6-dimethylpyrimidin-2-yl)-benzenesulfonamide], the results for the pIC50 at Cdc42 [1], on RhoA and on Rac1 [2] were 5.12, at most 3.30 and at most 3.30, respectively. Moreover, the “effect on GTP-bound (active) Cdc42” value on GTP-bound (active) Cdc42 (0-60 m, serum-starved Swiss 3T3 cells) is recorded as “activates Cdc42”. Further, the figures for the “time of Cdc42 activity peak” value at GTP-bound (active) Cdc42 (another peak) and on GTP-bound (active) Cdc42 (first peak) were “about 60 min” and “Approximately 15 min”, respectively. For the same compound, the “effect on Cdc42” value on Cdc42 [3] is “inhibit Cdc42”. The “% ZCL278 (activator activity)” value on Cdc42 [4] amounted to 100%. Moreover, the “effect on Rac1” value at Rac1 [5] is recorded as “inhibits Rac1”.
For `O=S(=O)(Nc1ccccc1O)c1ccc2oc3ccc(S(=O)(=O)Nc4ccccc4O)cc3c2c1` [ZCL279, N^2,N^8-bis(2-hydroxyphenyl)dibenzo[b,d]furan-2,8-disulfonamide], the “instinctual behavior: food burrowing” value with 3×Tg-AD mice [6] was “improve instinctual behavior”. Moreover, the “instinctual behavior: nesting behavior” value with 3×Tg-AD mice [7] is on record as “improve instinctual behavior”.
